Series [1] in a line: log P (neutral) by HPLC on reversed-phase column (EEC Directive 79/831 Annex V.A8). Format: physicochemical. Conditions: reversed-phase C18 HPLC column, reversed-phase C 18, 55° C., neutral range pH 7.8. The protocol: The log P values are measured according to EEC Directive 79/831 Annex V.A8 by HPLC (high-performance liquid chromatography) on a reversed-phase column (C 18). Temperature: 55° C. The LC-MS determination in the neutral range is effected at pH 7.8 with 0.001 molar aqueous ammonium hydrogencarbonate solution and acetonitrile as eluents; linear gradient from 10% acetonitrile to 95% acetonitrile. Called log P (neutral) in the table. Calibration is effected using unbranched alkan-2-ones (having 3 to 16 carbon atoms) with known log P values (log P values determined on the basis of the retention times by linear interpolation between two successive alkanones).

Series [2] deals with Ctenocephalides felis. In words: Ctenocephalides felis - oral test. Format: in vivo. Conditions: application rate 100 ppm; in citrated cattle blood; after 2 days. The protocol: Ctenocephalides felis—Oral Test Solvent: dimethyl sulfoxide To produce a suitable active ingredient formulation, 10 mg of active ingredient are mixed with 0.5 ml of dimethyl sulfoxide. Dilution with citrated cattle blood gives the desired concentration. About 20 unfed adult cat fleas (Ctenocephalides felis) are placed into a chamber which is closed at the top and bottom with gauze. A metal cylinder whose bottom end is closed with parafilm is placed onto the chamber. The cylinder contains the blood/active ingredient formulation, which can be imbibed by the fleas through the parafilm membrane. After 2 days, the kill in % is determined. 100% means that all of the fleas have been killed; 0% means that none of the fleas have been killed.

In series [3] the test system is Myzus persicae. In words: Myzus persicae - oral test. The settings on record: microtitre plate, after 5 days. The series is classed as in vivo. On the procedure:
Myzus persicae—Oral Test [table] To produce a suitable active ingredient formulation, 1 part by weight of active ingredient is dissolved with the stated parts by weight of solvent and made up to the desired concentration with water. 50 μl of the active ingredient preparation are transferred into microtitre plates and made up to a final volume of 200 μl with 150 μl of IPL41 insect medium (33%+15% sugar). Subsequently, the plates are sealed with parafilm, which a mixed population of green peach aphids (Myzus persicae) within a second microtitre plate is able to puncture and imbibe the solution. After 5 days, the efficacy in % is determined. 100% means that all the aphids have been killed; 0% means that no aphids have been killed.

Series [4] has as its system Ctenocephalides felis. In words: Ctenocephalides felis - in vitro contact tests with adult cat fleas. Format: in vivo. The settings on record: application rate 5 μg/cm^2 (=500 g/ha), coated glass tube, after 48 h. On the procedure:
Ctenocephalides felis—In Vitro Contact Tests with Adult Cat Fleas For the coating of the test tubes, 9 mg of active ingredient are first dissolved in 1 ml of acetone p.a. and then diluted to the desired concentration with acetone p.a. 250 μl of the solution are distributed homogeneously on the inner walls and the base of a 25 ml glass tube by turning and rocking on an orbital shaker (rocking rotation at 30 rpm for 2 h). With 900 ppm of active ingredient solution and internal surface area 44.7 cm^2, given homogeneous distribution, an area-based dose of 5 μg/cm^2 is achieved. After the solvent has evaporated off, the tubes are populated with 5-10 adult cat fleas (Ctenocephalides felis), sealed with a perforated plastic lid and incubated in a horizontal position at room temperature and ambient humidity. After 48 h, efficacy is determined. To this end, the tubes are stood upright and the fleas are knocked to the base of the tube. Fleas which remain motionless at the base or move in an uncoordinated manner are considered to be dead or moribund. […] 100% efficacy means that all the fleas were dead or moribund. 0% efficacy means that no fleas were harmed.

In series [5] the test system is Myzus persicae. Nature of the series: Myzus persicae - spray test. Format: in vivo. The settings on record: application rate 100 g/ha; Chinese cabbage leaf discs, all stages; after 5 days. On the procedure: Myzus persicae—Spray Test [table] To produce a suitable active ingredient formulation, 1 part by weight of active ingredient is dissolved with the specified parts by weight of solvent and made up to the desired concentration with water containing an emulsifier concentration of 1000 ppm. To produce further test concentrations, the formulation is diluted with emulsifier-containing water. Discs of Chinese cabbage leaves (Brassica pekinensis) infested by all stages of the green peach aphid (Myzus persicae) are sprayed with an active ingredient formulation of the desired concentration. After 5 days, the efficacy in % is determined. 100% means that all the aphids have been killed; 0% means that no aphids have been killed.

A further series has as its system Lucilia cuprina. Nature of the series: Lucilia cuprina test. Format: in vivo. The settings on record: application rate 100 ppm; minced horsemeat; after 2 days. On the procedure: Lucilia cuprina Test Solvent: dimethyl sulfoxide To produce a suitable active ingredient formulation, 10 mg of active ingredient are mixed with 0.5 ml of dimethyl sulfoxide, and the concentrate is diluted with water to the desired concentration. About 20 L1 larvae of the Australian sheep blowfly (Lucilia cuprina) are transferred into a test vessel containing minced horsemeat and the active ingredient formulation of the desired concentration. After 2 days, the kill in % is determined. 100% means that all the larvae have been killed; 0% means that no larvae have been killed.

In the next series the test system is Tetranychus urticae. In words: Tetranychus urticae - spray test, OP-resistant. Conditions: application rate 20 g/ha; bean leaf discs, all stages; after 6 days. The series is classed as in vivo. On the procedure:
Tetranychus urticae—Spray Test, OP-Resistant
(§1) To produce a suitable active ingredient formulation, 1 part by weight of active ingredient is dissolved with the specified parts by weight of solvent and made up to the desired concentration with water containing an emulsifier concentration of 1000 ppm. To produce further test concentrations, the formulation is diluted with emulsifier-containing water.
Discs of bean leaves (Phaseolus vulgaris) infested with all stages of the greenhouse red spider mite (Tetranychus urticae) are sprayed with an active ingredient formulation of the desired concentration.
After 6 days, the efficacy in % is determined. 100% means that all the spider mites have been killed; 0% means that no spider mites have been killed.

Another series concerns Boophilus microplus. Nature of the series: Boophilus microplus - injection test. Conditions: application rate 20 μg/animal; injection into engorged adult female ticks; after 7 days. Format: in vivo. On the procedure: Boophilus microplus—Injection Test Solvent: dimethyl sulfoxide To produce a suitable active ingredient formulation, 10 mg of active ingredient are mixed with 0.5 ml of solvent and the concentrate is diluted to the desired concentration with solvent. 1 μl of the active ingredient solution is injected into the abdomen of 5 engorged adult female cattle ticks (Boophilus microplus). The animals are transferred into dishes and kept in a climate-controlled room. Efficacy is assessed after 7 days by laying of fertile eggs. Eggs which are not visibly fertile are stored in a climate-controlled cabinet until the larvae hatch after about 42 days. An efficacy of 100% means that none of the ticks has laid any fertile eggs; 0% means that all the eggs are fertile.

The subject of a further series is Musca domestica. In words: Musca domestica test. The series is classed as in vivo. The settings on record: application rate 100 ppm; sponge with sugar solution; after 2 days. The protocol: Musca domestica Test Solvent: dimethyl sulfoxide To produce a suitable active ingredient formulation, 10 mg of active ingredient are mixed with 0.5 ml of dimethyl sulfoxide, and the concentrate is diluted with water to the desired concentration. Vessels containing a sponge treated with sugar solution and the active ingredient formulation of the desired concentration are populated with 10 adult houseflies (Musca domestica). After 2 days, the kill in % is determined. 100% means that all of the flies have been killed; 0% means that none of the flies have been killed.

A further series has as its system Spodoptera frugiperda. Nature of the series: Spodoptera frugiperda - spray test. The series is classed as in vivo. Conditions: application rate 100 g/ha; maize leaf discs; after 7 days. The protocol:
Spodoptera frugiperda—Spray Test [table] To produce a suitable active ingredient formulation, 1 part by weight of active ingredient is dissolved with the specified parts by weight of solvent and made up to the desired concentration with water containing an emulsifier concentration of 1000 ppm. To produce further test concentrations, the formulation is diluted with emulsifier-containing water. Leaf discs of maize (Zea mays) are sprayed with an active ingredient formulation of the desired concentration and, after drying, populated with caterpillars of the armyworm (Spodoptera frugiperda). After 7 days, the efficacy in % is determined. 100% means that all the caterpillars have been killed; 0% means that no caterpillar has been killed.

The next series deals with Phaedon cochleariae. In words: Phaedon cochleariae - spray test. Format: in vivo. The settings on record: application rate 100 g/ha; Chinese cabbage leaf discs; after 7 days. The protocol: Phaedon cochleariae—Spray Test
as §1
Discs of Chinese cabbage leaves (Brassica pekinensis) are sprayed with an active ingredient formulation of the desired concentration and, after drying, populated with larvae of the mustard beetle (Phaedon cochleariae).
After 7 days, the efficacy in % is determined. 100% means that all the beetle larvae have been killed; 0% means that no beetle larvae have been killed.

For orientation: chromatographic logP means lipophilicity estimated from chromatographic retention. As for `Cn1c(-c2nn3ccccc3c2Br)nc2cc(C(F)(F)F)ncc21` [2-(3-Bromopyrazolo[1,5-a]pyridin-2-yl)-3-methyl-6-(trifluoromethyl)imidazo[4,5-c]pyridine], in series [1], the chromatographic logP is 2.86.

Turning to `CCS(=O)(=O)c1c(-c2nc3cc(C(F)(F)F)ncc3n2C)nn2ccccc12` [Example I-1, 2-(3-Ethylsulfonylpyrazolo[1,5-a]pyridin-2-yl)-3-methyl-6-(trifluoromethyl)imidazo[4,5-c]pyridine], the “efficacy (kill of fleas)” value with Ctenocephalides felis [2] was 100%. The “efficacy (aphids killed)” value in the series on Myzus persicae [3] (application rate 4 ppm), with Myzus persicae [3] (application rate 20 ppm) and in the series with Myzus persicae [5] was 100% each time. In addition, the “efficacy (fleas dead or moribund)” value in the series with Ctenocephalides felis [4] came to 100%. The molecule further came in with a chromatographic logP in [1] of 2.26. Besides, the “efficacy (kill of L1 larvae)” value in the series on Lucilia cuprina came out at 100%.

As for `CCS(=O)(=O)c1c(-c2nc3cc(C(F)(F)F)ncc3n2C)nn2cccnc12` [Example I-2, 2-(3-Ethylsulfonylpyrazolo[1,5-a]pyrimidin-2-yl)-3-methyl-6-(trifluoromethyl)imidazo[4,5-c]-pyridine], the “efficacy (aphids killed)” value in the series on Myzus persicae [3] (application rate 4 ppm) came out at 100%; in the series on Myzus persicae [3] (application rate 20 ppm), 100%; in the series with Myzus persicae [5] it was 90%. Also, the chromatographic logP in [1] turned out to be 1.58. Further, the “efficacy (spider mites killed)” value in the series on Tetranychus urticae is 90%.

As for `CCS(=O)(=O)c1c(-c2nc3cc(C(F)(F)F)ncc3n2C)nn2c(C)cc(C)nc12` [Example I-3, 3-Ethylsulfonyl-5,7-dimethyl-2-[3-methyl-6-(trifluoromethyl)imidazo[4,5-c]pyridin-2-yl]-pyrazolo[1,5-a]pyrimidine], the “efficacy (kill of fleas)” value with Ctenocephalides felis [2] is given as 100%. For the same molecule, the “efficacy (aphids killed)” value in the series on Myzus persicae [3] (application rate 4 ppm), in the series on Myzus persicae [3] (application rate 20 ppm) and with Myzus persicae [5] was 100% in each case. The molecule also registered a chromatographic logP in series [1] of 2. For the same molecule, the “efficacy (no laying of fertile eggs)” value with Boophilus microplus came out at 100%. The “efficacy (kill of L1 larvae)” value in the series with Lucilia cuprina is reported as 97%.

In the case of `CCS(=O)(=O)c1c(-c2nc3cc(C(F)(F)F)cnc3n2C)nn2ccccc12` [Example I-4], the “efficacy (kill of adult houseflies)” value with Musca domestica is given as 90%. Also, the “efficacy (aphids killed)” value in the series with Myzus persicae [3] (application rate 4 ppm) came to 100%; with Myzus persicae [5], 90%. In the series on Ctenocephalides felis [4], the “efficacy (fleas dead or moribund)” value was 100%. For the same molecule, the “efficacy (caterpillars killed)” value in the series with Spodoptera frugiperda is listed as 100%. For the same molecule, the “efficacy (beetle larvae killed)” value in the series on Phaedon cochleariae was 100%. Moreover, the “efficacy (kill of L1 larvae)” value with Lucilia cuprina is recorded as 100%.

As to `CCS(=O)(=O)c1c(-c2nc3cc(C(F)(F)F)ncc3n2C)nn2cc(Cl)ccc12` [Example I-5], the “efficacy (aphids killed)” value in the series on Myzus persicae [3] (application rate 4 ppm) is reported as 100%. Besides, in the series with Spodoptera frugiperda, the “efficacy (caterpillars killed)” value was found to be 100%. Moreover, the “efficacy (beetle larvae killed)” value in the series on Phaedon cochleariae was 100%.

As to `CCS(=O)(=O)c1c(-c2nc3cc(C(F)(F)F)cnc3n2C)nn2cc(Cl)ccc12` [Example I-6], the entries for the “efficacy (aphids killed)” value with Myzus persicae [3] (application rate 4 ppm) and in the series with Myzus persicae [5] were 100% and 90%, respectively. Moreover, the “efficacy (caterpillars killed)” value with Spodoptera frugiperda amounted to 100%. Further, the “efficacy (beetle larvae killed)” value with Phaedon cochleariae stood at 100%.
